In publication PMC9954107, “In Vitro and Predictive Computational Toxicology Methods for the Neurotoxic Pesticide Amitraz and Its Metabolites” (Brain Sciences, 2023):

Key:
HepG2 cells [1] = experiment: MTT cytotoxicity assay; assay type: cell-based; settings: Homo sapiens, read-out: IC50 (µM) ± SEM
Description: Human hepatocarcinoma (HepG2) (ATCC: HB-8065) cells were cultured in DMEM medium supplemented with 10% NBCS, 100 U/mL penicillin, and […] streptomycin. The incubation conditions were pH 7.4, 5% CO2 at 37 °C, and 95% air atmosphere at constant humidity. The medium was changed every 5 days. The final pesticide concentrations tested were achieved by adding each pesticide solution to the culture medium with a final MeOH or DMSO concentration ≤ 1% (v/v). Appropriate controls containing the same amounts of solvents were included in each experiment. Absence of mycoplasma was checked routinely using the MycoAlert^TM PLUS Mycoplasma Kit (Lonza, Rockland, ME, USA).
Cytotoxic effects were determined in HepG2 cells by the MTT and total protein content (PC) assays. They have been extensively used in in vitro toxicological studies for measuring cell proliferation and survival. The MTT assay determines the viability of cells by the reduction of yellow soluble tetrazolium salt (MTT), only in the metabolically active cells, via a mitochondrial-dependent reaction to an insoluble purple formazan crystal. The MTT viability assay was performed according to Ruiz et al. (2006). To begin, 2 × 10^4 cell/well were plated in 96-well tissue culture plates. After cells reached 80% confluence, the culture medium was replaced with fresh medium containing serial dilutions of each pesticide (amitraz from […], 2,4-DMF from 93.75 to 1500 µM, and 2,4-DMA from 93.75 to 1500 µM). The pesticides were exposed at 24, 48, and 72 h. During the exposure time, neither the medium nor the pesticides was replenished. After the exposure time, the medium was removed and 200 μL of fresh medium was added to each well. Then we added 50 μL/well of MTT and the plates were returned to the incubator in the darkness. After 3 h of incubation, the MTT solution was removed and 200 μL of DMSO was added, followed by 25 μL Sorensen’s glycine buffer. Plates were gently shaken for 5 min to achieve the complete dissolution. The absorbance was measured at 540 nm using an automatic ELISA plate reader (MultiSkanEX, Thermo Scientific, Waltham, MA, USA).
(§1) For MTT and PC assays, cell viability was expressed as a percentage relative to the control solvent (≤1% MeOH or DMSO). Three independent experiments were conducted for each exposure time and at least in quadruplicate per concentration. The mean inhibition concentration (IC50) values were calculated using SigmaPlot version 11 (Systat Software Inc., GmbH, Germany).

HepG2 cells [2] = experiment: Total protein content (PC) cytotoxicity assay; assay type: cell-based, human; settings: for IC50: Homo sapiens, read-out: IC50 (µM) ± SEM; for decrease in cell viability: 72 h
Description: The medium was changed every 5 days. The final pesticide concentrations tested were achieved by adding each pesticide solution to the culture medium with a final MeOH or DMSO concentration ≤ 1% (v/v). Appropriate controls containing the same amounts of solvents were included in each experiment. Absence of mycoplasma was checked routinely using the MycoAlert^TM PLUS Mycoplasma Kit (Lonza, Rockland, ME, USA).
The PC method is based on the increase of absorbance of Coomassie Brilliant Blue dye when binding to proteins. The assay was performed in the same 96-well plates where the MTT test was carried out. First, the plates were washed with PBS and each well received 200 μL of NaOH 0.1 N to dissolve the proteins. […] The plates remained for 30 min at room temperature and the absorbance was measured at 620 nm in an automatic ELISA plate reader (MultiSkanEX, Thermo Scientific, MA, USA).
as §1

[3] = test system: primary hippocampal cells; settings: MTT, 24 h, cited from earlier work
[4] = test system: human lymphoblastoid (WIL2NS) cell line; parameters: method as in PMID 16125362; settings: from 0.119 to 119 µM, 24, 48, and 72 h; lowest concentration 0.119 µM; cited from earlier work
[5] = PC, HepG2, 24 h, mean ± SEM (n = 3)
[6] = PC, HepG2, 48 h, mean ± SEM (n = 3)
[7] = PC, HepG2, 72 h, mean ± SEM (n = 3)

Cc1ccc(N)c(C)c1 [2,4-DMA, 2,4-dimethylaniline]
IC50 (HepG2 cells [1]; HepG2, 24 h): > 1500 µM
IC50 (HepG2 cells [1]; HepG2, 48 h): > 1500 µM
IC50 (HepG2 cells [1]; HepG2, 72 h): > 1500 µM
IC50 (HepG2 cells [2]; [5]): > 1500 µM
IC50 (HepG2 cells [2]; [6]): > 1500 µM
IC50 (HepG2 cells [2]; [7]): > 1500 µM
cell viability decreased to (HepG2 cells [2]; PC, HepG2, 1500 µM, 24 h): 53%

Cc1ccc(NC=O)c(C)c1 [2,4-DMF, N-(2,4-dimethylphenyl) formamide]
IC50 (HepG2 cells [1]; HepG2, 24 h): > 1500 µM
IC50 (HepG2 cells [1]; HepG2, 48 h): > 1500 µM
IC50 (HepG2 cells [1]; HepG2, 72 h): > 1500 µM
IC50 (HepG2 cells [2]; HepG2, 24 h): > 1500 µM
IC50 (HepG2 cells [2]; HepG2, 48 h): > 1500 µM
IC50 (HepG2 cells [2]; HepG2, 72 h): > 1500 µM
decrease in cell viability (HepG2 cells [2]; PC, HepG2, 1250 µM): 27%
decrease in cell viability (HepG2 cells [2]; PC, HepG2, 1500 µM): 32%

Cc1ccc(/N=C/N(C)/C=N/c2ccc(C)cc2C)c(C)c1 [Amitraz, N,N’-[(methylimino)dimethylidyne]di-2,4-xylidine]
IC50 (HepG2 cells [1]; HepG2, 24 h): 196 ± 10.1 µM
IC50 (HepG2 cells [1]; HepG2, 48 h): 176 ± 5 µM
IC50 (HepG2 cells [1]; HepG2, 72 h): 157 ± 10.1 µM
metabolic activity ([3]; 100 µM): decrease in metabolic activity
cytotoxic effect (cell viability) ([3]; from 60 to 120 µM, effect up to 100 µM): decreased the cell viability in a concentration-dependent manner
cytotoxicity (cell viability) [4]: significant decrease in cell viability for all concentrations tested, except for the lowest concentration assayed
IC50 (HepG2 cells [2]; [5]): 260 ± 13.3 µM
IC50 (HepG2 cells [2]; [6]): 213 ± 37.5 µM
IC50 (HepG2 cells [2]; [7]): 175 ± 2.9 µM
reduction of cell viability (HepG2 cells [2]; PC, HepG2, from 187.5 μM, three times of exposure): 24–100%
